Reference: patent publication US12029724B2, “Method for inhibiting tumor growth” (Eisai R&D Management Co., Ltd., priority 2016, dated 2024)
Structures can show the parent of a compound that is named as a salt.

How the values were obtained:
KP-1 pancreatic cancer = experiment: anti-tumor activity, KP-1 xenograft in nude mice; format: in vivo, human; conditions: KP-1 model, i.v. day 0 and day 7, start tumor volume 200 mm^3, log RTV, day 3-day 14
Description: (§1) Cancer cell lines were purchased from the Riken Bioresource Center (RBC, Japan (Ibaraki)), American Type Culture Collection (ATCC, USA (Manassas, Va.)), Deutsche Sammlung von Mikroorganismen and Zellkulturen GmbH (German Collection of Microorganisms and Cell Cultures GmbH: DSMZ, Germany (Braunschweig)), Health Science Research Resource Bank (HSRRB, Japan (Osaka)), and the DS Pharma Biomedical Co., Ltd. (DS-Pharma, Japan (Osaka)), and were kindly donated by the Kyushu Cancer Center, Kagoshima University, and the Cell Resource Center for Biomedical Research of the Institute of Development, Aging, and Cancer of Tohoku University.
(§2) In the tables, the cancer cell lines to which “*” is added in the “acclimation” column were obtained from grown tumors which were formed by subcutaneously inoculating each cancer cell line to a mouse in advance.
(§3) On the initial day of inoculation, the cancer cells were harvested by trypsinization and were washed and suspended using the particular medium. Some of the harvested cancer cells were then mixed with GelTrex (Gibco, #12760-021 or A14132-02) at 1:1. Using a 26-gauge syringe needle, these cells were inoculated at a volume of 0.1 mL into the vicinity of the right axillary region of mice (BALB/c nu/nu). […]

[1] = tested on: SK-LMS-1 sarcoma (leiomyosarcoma); experiment: anti-tumor activity, SK-LMS-1 xenograft in nude mice; format: in vivo, human; conditions: SK-LMS-1 model, i.v. day 0 and day 7, start tumor volume 290 mm^3, log RTV, day 2-day 7
Description: as §1, §2
(§4) On the initial day of inoculation, the cancer cells were harvested by trypsinization and were washed and suspended using the particular medium. Some of the harvested cancer cells were then mixed with GelTrex (Gibco, #12760-021 or A14132-02) at 1:1. […]
(§5) The tumor size was measured over time with a caliper, and the tumor volume was determined based on the following calculation formula. tumor volume (mm^3)=length (mm)×square of width (mm^2)×½ […]

[2] = tested on: U251MG brain tumor (glioblastoma); experiment: anti-tumor activity, U251MG xenograft in nude mice; format: in vivo, human; conditions: U251MG model, i.v. day 0 and day 7, start tumor volume 150 mm^3, log RTV, day 5-day 23
Description: as §1, §2, §3

[3] = tested on: A673 sarcoma (Ewing sarcoma); experiment: anti-tumor activity, A673 xenograft in nude mice; format: in vivo, human; conditions: A673 model, i.v. day 0 and day 7, start tumor volume 220 mm^3, log RTV, day 4-day 18
Description: as §1, §2, §4, §5

[4] = tested on: UM-UC-3 urothelial cancer (bladder cancer); experiment: anti-tumor activity, UM-UC-3 xenograft in nude mice; format: in vivo, human
Description: as §1, §2, §4, §5

[5] = tested on: HEC-151 uterine cancer (endometrial cancer); experiment: anti-tumor activity, HEC-151 xenograft in nude mice; format: in vivo, human; conditions: HEC-151 model, i.v. day 0 and day 7, start tumor volume 220 mm^3, log RTV, day 3-day 14
Description: as §1, §2, §4, §5

[6] = tested on: MFE-296 uterine cancer (endometrial cancer); experiment: anti-tumor activity, MFE-296 xenograft in nude mice; format: in vivo, human; conditions: MFE-296 model, i.v. day 0 and day 7, start tumor volume 200 mm^3, log RTV, day 4-day 14
Description: as §1, §2, §4, §5

K1 thyroid cancer = experiment: anti-tumor activity, K1 xenograft in nude mice; format: in vivo, human; conditions: K1 model, i.v. day 0 and day 7, start tumor volume 390 mm^3, log RTV, day 3-day 17
Description: as §1, §2, §4, §5

[7] = tested on: ECC-1 uterine cancer (endometrial cancer); experiment: anti-tumor activity, ECC-1 xenograft in nude mice; format: in vivo, human; conditions: ECC-1 model, i.v. day 0 and day 7, start tumor volume 160 mm^3, log RTV, day 4-day 19
Description: as §1, §2, §4, §5

[8] = tested on: MFE-280 uterine cancer (endometrial cancer); experiment: anti-tumor activity, MFE-280 xenograft in nude mice; format: in vivo, human; conditions: MFE-280 model, i.v. day 0 and day 7, start tumor volume 200 mm^3, log RTV, day 4-day 14
Description: as §1, §2, §4, §5

[9] = tested on: OMC9 sarcoma (leiomyosarcoma); experiment: anti-tumor activity, OMC9 xenograft in nude mice; format: in vivo, human; conditions: OMC9 model, BALB/c nu/nu mice, i.v. day 0 and day 7, start tumor volume 150 mm^3, log RTV, day 7-day 35
Description: as §1, §2, §4, §5

[10] = tested on: MES-SA sarcoma (leiomyosarcoma); experiment: anti-tumor activity, MES-SA xenograft in nude mice; format: in vivo, human
Description: as §1, §2, §4, §5

[11] = tested on: SK-UT-1 sarcoma (leiomyosarcoma); experiment: anti-tumor activity, SK-UT-1 xenograft in nude mice; format: in vivo, human; conditions: day 3-day 10
Description: as §1, §2, §4, §5

human xenograft models = experiment: anti-tumor activity, summary over the 18 human xenograft models; format: in vivo; conditions: in all 18 human xenograft models, RM-ANOVA using log RTV, P<0.05
Description: as §1, §2, §4, §5

[12] = tested on: KB (HeLa) uterine cancer (cervical cancer); experiment: anti-tumor activity, KB (HeLa) xenograft in nude mice; format: in vivo, human; conditions: KB (HeLa) model, i.v. day 0 and day 7, start tumor volume 150 mm^3, log RTV, day 7-day 14
Description: as §1, §2
The KB cells indicated as a cancer cell line in Table 2 were originally thought to be derived from an epithelial cancer. […] In addition, ITS-G supplement (Wako Pure Chemical Industries, Ltd., #090-06741) was used as the ITS. […]
as §5

[13] = tested on: PLC/PRF/5 liver cancer (hepatocellular carcinoma); experiment: anti-tumor activity, PLC/PRF/5 xenograft in nude mice; format: in vivo, human; conditions: PLC/PRF/5 model, i.v. day 0 and day 7, start tumor volume 180 mm^3, log RTV, day 4-day 18
Description: as §1, §2, §4, §5

Hs746T stomach cancer = experiment: anti-tumor activity, Hs746T xenograft in nude mice; format: in vivo, human; conditions: Hs746T model, i.v. day 0 and day 7, start tumor volume 180 mm^3, log RTV, day 4-day 11
Description: as §1, §2, §4, §5

AsPC-1 pancreatic cancer = experiment: anti-tumor activity, AsPC-1 xenograft in nude mice; format: in vivo, human; conditions: AsPC-1 model, i.v. day 0 and day 7, start tumor volume 380 mm^3, log RTV, day 3-day 35
Description: as §1, §2, §4, §5

BXPC-3 pancreatic cancer = experiment: anti-tumor activity, BXPC-3 xenograft in nude mice; format: in vivo, human; conditions: BXPC-3 model, i.v. day 0 and day 7, start tumor volume 120 mm^3, log RTV, day 7-day 21
Description: as §1, §2, §4, §5

C=C1C[C@@H]2CC[C@@]34C[C@H]5O[C@H]6[C@@H](O3)[C@H]3O[C@H](CC[C@@H]3O[C@H]6[C@H]5O4)CC(=O)C[C@@H]3[C@@H](OC)[C@@H](C[C@H](O)CN)O[C@H]3C[C@H]3O[C@@H](CC[C@@H]1O2)C[C@@H](C)C3=C [E7389, eribulin mesylate]
RM-ANOVA E7389 vs vehicle (KP-1 pancreatic cancer): Yes 1 | RM-ANOVA E7389 vs vehicle [1]: Yes 1 | RM-ANOVA E7389 vs vehicle [2]: Yes 1 | RM-ANOVA E7389 vs vehicle [3]: Yes 1 | RM-ANOVA E7389 vs vehicle ([4]; UM-UC-3 model (Table 2 conditions), i.v. day 0 and day 7, start tumor volume 230 mm^3, log RTV, day 3-day 10): Yes 1 | RM-ANOVA E7389 vs vehicle ([4]; UM-UC-3 model (Table 3 conditions), i.v. day 0 and day 7, start tumor volume 190 mm^3, log RTV, day 3-day 14): Yes 1 | RM-ANOVA E7389 vs vehicle [5]: Yes 1 | RM-ANOVA E7389 vs vehicle [6]: Yes 1 | RM-ANOVA E7389 vs vehicle (K1 thyroid cancer): Yes 1 | RM-ANOVA E7389 vs vehicle [7]: Yes 1 | RM-ANOVA E7389 vs vehicle [8]: Yes 1 | RM-ANOVA E7389 vs vehicle [9]: Yes 1 | RM-ANOVA E7389 vs vehicle ([10]; MES-SA model (Table 2 conditions), i.v. day 0 and day 7, start tumor volume 190 mm^3, log RTV, day 4-day 18): Yes 1 | RM-ANOVA E7389 vs vehicle ([10]; MES-SA model (Table 3 conditions), i.v. day 0 and day 7, start tumor volume 420 mm^3, log RTV, day 3-day 7): Yes 1 | RM-ANOVA E7389 vs vehicle ([11]; SK-UT-1 model (Table 2 conditions), i.v. day 0 and day 7, start tumor volume 260 mm^3, log RTV): Yes 1 | RM-ANOVA E7389 vs vehicle ([11]; SK-UT-1 model (Table 3 conditions), i.v. day 0 and day 7, start tumor volume 290 mm^3, log RTV): Yes 1 | anti-tumor activity compared to the vehicle group (human xenograft models): statistically significant | RM-ANOVA E7389 vs vehicle [12]: Yes 1 | RM-ANOVA E7389 vs vehicle [13]: Yes 1 | RM-ANOVA E7389 vs vehicle (Hs746T stomach cancer): Yes 1 | RM-ANOVA E7389 vs vehicle (AsPC-1 pancreatic cancer): Yes 1 | RM-ANOVA E7389 vs vehicle (BXPC-3 pancreatic cancer): Yes 1
